US8372863B2, “Tetrahydro-1H-pyrrolo fused pyridones” (Merck Sharp & Dohme Corp., priority 2008, dated 2013)
pIC50: −log10 of the molar value. Where a name gives a salt, the structure may show the parent alone.

What follows are compounds tested against PHD2 (Homo sapiens, UniProt Q9GZT9) (assay: PHD2 / HIF-1α peptide hydroxylation assay with time resolved fluorescence readout (PHD2 binding activity)). Conditions: FLAG-tagged full length PHD2; 0.2 μM 2-oxoglutarate, 0.5 μM HIF-1α peptide; read-out: PHD2 Activity (PHD2 binding activity expressed as IC50).
Format: biochemical
Method: After a 30 min preincubation at room temperature, the enzymatic reactions were initiated by the addition of 4 μL of substrates (final concentrations of 0.2 μM 2-oxoglutarate and 0.5 μM HIF-1α peptide biotinyl-DLDLEMLAPYIPMDDDFQL). After 2 hr at room temperature, the reactions were terminated and signals were developed by the addition of a 25 μL quench/detection mix to a final concentration of 1 mM ortho-phenanthroline, 0.1 mM EDTA, 0.5 nM anti-(His)6 LANCE reagent (Perkin-Elmer Life Sciences), 100 nM AF647-labeled streptavidin (Invitrogen), and 2 μg/ml (His)6-VHL complex (S. Tan(2001) Protein Expr. Purif 21, 224-234). The ratio of time resolved fluorescence signals at 665 and 620 nm was determined, and percent inhibition was calculated relative to an uninhibited control sample run in parallel.

Chain of PHD2 (Q9GZT9 whole entry): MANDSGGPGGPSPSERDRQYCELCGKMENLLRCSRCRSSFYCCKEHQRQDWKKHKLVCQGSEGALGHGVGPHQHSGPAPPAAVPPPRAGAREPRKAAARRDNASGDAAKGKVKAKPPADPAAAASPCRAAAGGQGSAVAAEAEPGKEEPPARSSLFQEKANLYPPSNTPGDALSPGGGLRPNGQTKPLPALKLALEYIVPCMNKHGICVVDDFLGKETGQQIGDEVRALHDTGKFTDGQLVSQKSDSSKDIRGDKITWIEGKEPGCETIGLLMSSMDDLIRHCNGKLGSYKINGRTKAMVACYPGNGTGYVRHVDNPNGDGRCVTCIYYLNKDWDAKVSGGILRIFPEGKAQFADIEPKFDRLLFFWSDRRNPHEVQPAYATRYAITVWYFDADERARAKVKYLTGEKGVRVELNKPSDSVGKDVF

Q: With `C=CCCC(=O)N1Cc2c(O)c(C(=O)NCC(=O)O)c(=O)n(Cc3cccc(Br)c3)c2C1` [Example 4, N-{[1-(3-bromobenzyl)-4-hydroxy-2-oxo-6-pent-4-enoyl-2,5,6,7-tetrahydro-1H-pyrrolo[3,4-b]pyridin-3-yl]carbonyl}glycine] as the compound, how does the pIC50 read?
A: > 8.00

Q: `O=C(O)CNC(=O)c1c(O)c2c(n(Cc3ccc(C(F)(F)F)cc3)c1=O)CN(C(=O)c1cc3ncccn3n1)C2` [Example 24, N-({4-hydroxy-2-oxo-6-(pyrazolo[1,5-a]pyrimidin-2-ylcarbonyl)-1-[4-(trifluoromethyl)benzyl]-2,5,6,7-tetrahydro-1H-pyrrolo[3,4-b]pyridin-3-yl}carbonyl)glycine] was tested. Which pIC50 did it give?
A: > 8.00

Q: `C=CCCC(=O)N1Cc2c(c(O)c(C(=O)NCC(=O)O)c(=O)n2Cc2ccc(Br)cc2)C1C` (stereo not drawn) [Example 6, N-{[1-(4-bromobenzyl)-4-hydroxy-5-methyl-2-oxo-6-pent-4-enoyl-2,5,6,7-tetrahydro-1H-pyrrolo[3,4-b]pyridin-3-yl]carbonyl}glycine] was tested. Which pIC50 did it give?
A: > 8.00

Q: How did the pIC50 turn out when `O=C(O)CNC(=O)c1c(O)c2c(n(Cc3ccc(C(F)(F)F)cc3)c1=O)CN(C(=O)N1CCCC1)C2` [Example 17, N-({4-hydroxy-2-oxo-6-(pyrrolidin-1-ylcarbonyl)-1-[4-(trifluoromethyl)benzyl]-2,5,6,7-tetrahydro-1H-pyrrolo[3,4-b]pyridin-3-yl}carbonyl)glycine] was run?
A: > 8.00

Q: `CS(=O)(=O)N1Cc2c(O)c(C(=O)NCC(=O)O)c(=O)n(Cc3ccc(C(F)(F)F)cc3)c2C1` [Example 10, N-({4-hydroxy-6-(methylsulfonyl)-2-oxo-1-[4-(trifluoromethyl)benzyl]-2,5,6,7-tetrahydro-1H-pyrrolo[3,4-b]pyridin-3-yl}carbonyl)glycine] was tested. Which pIC50 did it give?
A: > 8.00

Q: How did the pIC50 turn out when `CN1CCC[C@H]1C(=O)N1Cc2c(O)c(C(=O)NCC(=O)O)c(=O)n(Cc3ccc(C(F)(F)F)cc3)c2C1` [Example 27, N-({4-hydroxy-6-(1-methyl-L-prolyl)-2-oxo-1-[4-(trifluoromethyl)benzyl]-2,5,6,7-tetrahydro-1H-pyrrolo[3,4-b]pyridin-3-yl}carbonyl)glycine] was run?
A: > 8.00

Q: With `O=C(O)CNC(=O)c1c(O)c2c(n(Cc3cccc(-c4ccccc4Cl)c3)c1=O)CN(C(=O)c1cscn1)C2` [Example 47, N-{[1-[(2′-chlorobiphenyl-3-yl)methyl]-4-hydroxy-2-oxo-6-(1,3-thiazol-4-ylcarbonyl)-2,5,6,7-tetrahydro-1H-pyrrolo[3,4-b]pyridin-3-yl]carbonyl}glycine] as the compound, how does the pIC50 read?
A: > 8.00

Q: How did the pIC50 turn out when `O=C(O)CNC(=O)c1c(O)c2c(n(Cc3ccc(C(F)(F)F)cc3)c1=O)CN(C(=O)c1nccs1)C2` [Example 34, N-({4-hydroxy-2-oxo-6-(1,3-thiazol-2-ylcarbonyl)-1-[4-(trifluoromethyl)benzyl]-2,5,6,7-tetrahydro-1H-pyrrolo[3,4-b]pyridin-3-yl}carbonyl)glycine] was run?
A: > 8.00

Q: How did the pIC50 turn out when `O=C(O)CNC(=O)c1c(O)c2c(n(Cc3ccc(C(F)(F)F)cc3)c1=O)CN(C(=O)c1cocn1)C2` [Example 37, N-({4-hydroxy-6-(1,3-oxazol-4-ylcarbonyl)-2-oxo-1-[4-(trifluoromethyl)benzyl]-2,5,6,7-tetrahydro-1H-pyrrolo[3,4-b]pyridin-3-yl}carbonyl)glycine] was run?
A: > 8.00

Q: How did the pIC50 turn out when `O=C(O)CNC(=O)c1c(O)c2c(n(Cc3ccc(C(F)(F)F)cc3)c1=O)CN(C(=O)c1ccc(Cl)cc1)C2` [Example 21, N-({6-(4-chlorobenzoyl)-4-hydroxy-2-oxo-1-[4-(trifluoromethyl)benzyl]-2,5,6,7-tetrahydro-1H-pyrrolo[3,4-b]pyridin-3-yl}carbonyl)glycine] was run?
A: > 8.00

Q: How did the pIC50 turn out when `COCC(=O)N1Cc2c(O)c(C(=O)NCC(=O)O)c(=O)n(Cc3ccc(C(F)(F)F)cc3)c2C1` [Example 14, N-({4-hydroxy-6-(methoxyacetyl)-2-oxo-1-[4-(trifluoromethyl)benzyl]-2,5,6,7-tetrahydro-1H-pyrrolo[3,4-b]pyridin-3-yl}carbonyl)glycine] was run?
A: > 8.00

Q: With `O=C(O)CNC(=O)c1c(O)c2c(n(Cc3ccccc3)c1=O)CN(C(=O)c1cscn1)C2` [Example 54, N-{[1-benzyl-4-hydroxy-2-oxo-6-(1,3-thiazol-4-ylcarbonyl)-2,5,6,7-tetrahydro-1H-pyrrolo[3,4-b]pyridin-3-yl]carbonyl}glycine] as the compound, how does the pIC50 read?
A: > 8.00

Q: With `C=CCCC(=O)N1Cc2c(O)c(C(=O)NCC(=O)O)c(=O)n(Cc3nc4ccccc4s3)c2C1` [Example 3, N-{[1-(1,3-benzothiazol-2-ylmethyl)-4-hydroxy-2-oxo-6-pent-4-enoyl-2,5,6,7-tetrahydro-1H-pyrrolo[3,4-b]pyridin-3-yl]carbonyl}glycine] as the compound, how does the pIC50 read?
A: > 8.00

Q: With `O=C(O)CNC(=O)c1c(O)c2c(n(Cc3ccc(C(F)(F)F)cc3)c1=O)CN(C(=O)N1CCOCC1)C2` [Example 11, N-({4-hydroxy-6-(morpholin-4-ylcarbonyl)-2-oxo-1-[4-(trifluoromethyl)benzyl]-2,5,6,7-tetrahydro-1H-pyrrolo[3,4-b]pyridin-3-yl}carbonyl)glycine] as the compound, how does the pIC50 read?
A: > 8.00

Q: How did the pIC50 turn out when `O=C(O)CNC(=O)c1c(O)c2c(n(Cc3ccc(C(F)(F)F)cc3)c1=O)CN(C(=O)c1cccc(Cl)c1)C2` [Example 8, N-({6-(3-chlorobenzoyl)-4-hydroxy-2-oxo-1-[4-(trifluoromethyl)benzyl]-2,5,6,7-tetrahydro-1H-pyrrolo[3,4-b]pyridin-3-yl}carbonyl)glycine] was run?
A: > 8.00

Q: How did the pIC50 turn out when `Cc1cc(C(=O)N2Cc3c(O)c(C(=O)NCC(=O)O)c(=O)n(Cc4ccc(C(F)(F)F)cc4)c3C2)nn1C` [Example 31, N-({6-[(1,5-dimethyl-1H-pyrazol-2-ium-3-yl)carbonyl]-4-hydroxy-2-oxo-1-[4-(trifluoromethyl)benzyl]-2,5,6,7-tetrahydro-1H-pyrrolo[3,4-b]pyridin-3-yl}carbonyl)glycine chloride] was run?
A: > 8.00

Q: With `CC1c2c(c(O)c(C(=O)NCC(=O)O)c(=O)n2Cc2ccc(-c3ccccc3)cc2)CN1C(=O)c1cscn1` (single isomer, unassigned) [55 Enantiomer 2] as the compound, how does the pIC50 read?
A: 7.00 to 8.00

Q: With `C=CCCC(=O)N1Cc2c(O)c(C(=O)NCC(=O)O)c(=O)n(Cc3ccc(-c4ccccc4)cc3)c2C1C` (stereo not drawn) [Example 48, N-{[1-(biphenyl-4-ylmethyl)-4-hydroxy-7-methyl-2-oxo-6-pent-4-enoyl-2,5,6,7-tetrahydro-1H-pyrrolo[3,4-b]pyridin-3-yl]carbonyl}glycine] as the compound, how does the pIC50 read?
A: > 8.00

Q: How did the pIC50 turn out when `N#Cc1cccnc1N1Cc2c(O)c(C(=O)NCC(=O)O)c(=O)n(Cc3ccc(C(F)(F)F)cc3)c2C1` [Example 42, N-({6-(3-cyanopyridinium-2-yl)-4-hydroxy-2-oxo-1-[4-(trifluoromethyl)benzyl]-2,5,6,7-tetrahydro-1H-pyrrolo[3,4-b]pyridin-3-yl}carbonyl)glycine trifluoroacetate] was run?
A: > 8.00

Q: How did the pIC50 turn out when `O=C(O)CNC(=O)c1c(O)c2c(n(Cc3ccc(C(F)(F)F)cc3)c1=O)CN(C(=O)[C@@H]1CCC(=O)N1)C2` [Example 28, N-({4-hydroxy-2-oxo-6-(5-oxo-L-prolyl)-1-[4-(trifluoromethyl)benzyl]-2,5,6,7-tetrahydro-1H-pyrrolo[3,4-b]pyridin-3-yl}carbonyl)glycine] was run?
A: > 8.00

Q: How did the pIC50 turn out when `O=C(O)CNC(=O)c1c(O)c2c(n(Cc3ccccc3-c3ccccc3)c1=O)CN(C(=O)c1cscn1)C2` [Example 49, N-{[1-(biphenyl-2-ylmethyl)-4-hydroxy-2-oxo-6-(1,3-thiazol-4-ylcarbonyl)-2,5,6,7-tetrahydro-1H-pyrrolo[3,4-b]pyridin-3-yl]carbonyl}glycine] was run?
A: > 8.00

Q: How did the pIC50 turn out when `CCOC(=O)N1Cc2c(O)c(C(=O)NCC(=O)O)c(=O)n(Cc3ccc(C(F)(F)F)cc3)c2C1` [Example 16, N-({6-(ethoxycarbonyl)-4-hydroxy-2-oxo-1-[4-(trifluoromethyl)benzyl]-2,5,6,7-tetrahydro-1H-pyrrolo[3,4-b]pyridin-3-yl}carbonyl)glycine] was run?
A: > 8.00

Q: With `O=C(O)CNC(=O)c1c(O)c2c(n(Cc3ccc(C(F)(F)F)cc3)c1=O)CN(C(=O)c1ccccc1Cl)C2` [Example 18, N-({6-(2-chlorobenzoyl)-4-hydroxy-2-oxo-1-[4-(trifluoromethyl)benzyl]-2,5,6,7-tetrahydro-1H-pyrrolo[3,4-b]pyridin-3-yl}carbonyl)glycine] as the compound, how does the pIC50 read?
A: > 8.00

Q: `CCOC(=O)N1Cc2c(O)c(C(=O)NCC(=O)O)c(=O)n(Cc3ccc(-c4ccccc4)cc3)c2C1` [Example 22, N-{[1-(biphenyl-4-ylmethyl)-6-(ethoxycarbonyl)-4-hydroxy-2-oxo-2,5,6,7-tetrahydro-1H-pyrrolo[3,4-b]pyridin-3-yl]carbonyl}glycine] was tested. Which pIC50 did it give?
A: > 8.00

Q: `CC1c2c(c(O)c(C(=O)NCC(=O)O)c(=O)n2Cc2ccc(-c3ccccc3)cc2)CN1C(=O)c1cscn1` (single isomer, unassigned) [55 Enantiomer 1] was tested. Which pIC50 did it give?
A: > 8.00

Q: How did the pIC50 turn out when `O=C(O)CNC(=O)c1c(O)c2c(n(Cc3ccc(C(F)(F)F)cc3)c1=O)CN(Cc1ccc(Cl)cc1)C2` [Example 39, N-({6-(4-chlorobenzyl)-4-hydroxy-2-oxo-1-[4-(trifluoromethyl)benzyl]-2,5,6,7-tetrahydro-1H-pyrrolo[3,4-b]pyridin-6-ium-3-yl}carbonyl)glycine trifluoroacetate] was run?
A: > 8.00

Same assay, conditions: PHD2 Activity (PHD2 binding activity expressed as IC50), FLAG-tagged full length PHD2; 0.2 μM 2-oxoglutarate, 0.5 μM HIF-1α peptide

Q: `O=C(O)CNC(=O)c1c(O)c2c(n(Cc3ccc(C(F)(F)F)cc3)c1=O)CN(C(=O)C1CC1)C2` [Example 13, N-({6-(cyclopropylcarbonyl)-4-hydroxy-2-oxo-1-[4-(trifluoromethyl)benzyl]-2,5,6,7-tetrahydro-1H-pyrrolo[3,4-b]pyridin-3-yl}carbonyl)glycine] was tested. Which pIC50 did it give?
A: > 8.00
